Legend:
[1] = The drug is tested on Z-029 corresponding to rat gut metagenome with ENA study accession number: PRJEB37062 and ENA sample accession number: ERS12561828 for biotransformation under anaerobic condition. The drug concentrations were measured over 9 timepoints collected between 0 and 24 hours of incubation by liquid-chromatography-coupled mass spectrometry (LC–MS); conditions: 2 µM
[2] = The drug is tested on Z-028 corresponding to mouse gut metagenome with ENA study accession number: PRJEB37062 and ENA sample accession number: ERS12561827 for biotransformation under anaerobic condition. The drug concentrations were measured over 9 timepoints collected between 0 and 24 hours of incubation by liquid-chromatography-coupled mass spectrometry (LC–MS); conditions: 2 µM
[3] = The drug is tested on Z-022 corresponding to mouse gut metagenome with ENA study accession number: PRJEB37062 and ENA sample accession number: ERS12561821 for biotransformation under anaerobic condition. The drug concentrations were measured over 9 timepoints collected between 0 and 24 hours of incubation by liquid-chromatography-coupled mass spectrometry (LC–MS); conditions: 2 µM
[4] = The drug is tested on Z-020 corresponding to rabbit gut metagenome with ENA study accession number: PRJEB37062 and ENA sample accession number: ERS12561819 for biotransformation under anaerobic condition. The drug concentrations were measured over 9 timepoints collected between 0 and 24 hours of incubation by liquid-chromatography-coupled mass spectrometry (LC–MS); conditions: 2 µM
[5] = The drug is tested on Z-019 corresponding to rat gut metagenome with ENA study accession number: PRJEB37062 and ENA sample accession number: ERS12561818 for biotransformation under anaerobic condition. The drug concentrations were measured over 9 timepoints collected between 0 and 24 hours of incubation by liquid-chromatography-coupled mass spectrometry (LC–MS); conditions: 2 µM
[6] = The drug is tested on Z-018 corresponding to pig gut metagenome with ENA study accession number: PRJEB37062 and ENA sample accession number: ERS12561817 for biotransformation under anaerobic condition. The drug concentrations were measured over 9 timepoints collected between 0 and 24 hours of incubation by liquid-chromatography-coupled mass spectrometry (LC–MS); conditions: 2 µM
[7] = The drug is tested on Z-008 corresponding to metagenome with ENA study accession number: PRJEB37062 and ENA sample accession number: ERS12561808 for biotransformation under anaerobic condition. The drug concentrations were measured over 9 timepoints collected between 0 and 24 hours of incubation by liquid-chromatography-coupled mass spectrometry (LC–MS); conditions: 2 µM
[8] = The drug is tested on WLS-310 corresponding to human gut metagenome with ENA study accession number: PRJEB37062 and ENA sample accession number: ERS12561785 for biotransformation under anaerobic condition. The drug concentrations were measured over 9 timepoints collected between 0 and 24 hours of incubation by liquid-chromatography-coupled mass spectrometry (LC–MS); conditions: 2 µM
[9] = The drug is tested on WLS-098 corresponding to human gut metagenome with ENA study accession number: PRJEB37062 and ENA sample accession number: ERS12561754 for biotransformation under anaerobic condition. The drug concentrations were measured over 9 timepoints collected between 0 and 24 hours of incubation by liquid-chromatography-coupled mass spectrometry (LC–MS); conditions: 2 µM
[10] = The drug is tested on WLS-073 corresponding to human gut metagenome with ENA study accession number: PRJEB37062 and ENA sample accession number: ERS12561749 for biotransformation under anaerobic condition. The drug concentrations were measured over 9 timepoints collected between 0 and 24 hours of incubation by liquid-chromatography-coupled mass spectrometry (LC–MS); conditions: 2 µM
[11] = The drug is tested on WLS-069 corresponding to human gut metagenome with ENA study accession number: PRJEB37062 and ENA sample accession number: ERS12561748 for biotransformation under anaerobic condition. The drug concentrations were measured over 9 timepoints collected between 0 and 24 hours of incubation by liquid-chromatography-coupled mass spectrometry (LC–MS); conditions: 2 µM
[12] = The drug is tested on WLS-039 corresponding to human gut metagenome with ENA study accession number: PRJEB37062 and ENA sample accession number: ERS12561746 for biotransformation under anaerobic condition. The drug concentrations were measured over 9 timepoints collected between 0 and 24 hours of incubation by liquid-chromatography-coupled mass spectrometry (LC–MS); conditions: 2 µM
[13] = The drug is tested on WLS-038 corresponding to human gut metagenome with ENA study accession number: PRJEB37062 and ENA sample accession number: ERS12561745 for biotransformation under anaerobic condition. The drug concentrations were measured over 9 timepoints collected between 0 and 24 hours of incubation by liquid-chromatography-coupled mass spectrometry (LC–MS); conditions: 2 µM
[14] = The drug is tested on WLS-006 corresponding to human gut metagenome with ENA study accession number: PRJEB37062 and ENA sample accession number: ERS12561741 for biotransformation under anaerobic condition. The drug concentrations were measured over 9 timepoints collected between 0 and 24 hours of incubation by liquid-chromatography-coupled mass spectrometry (LC–MS); conditions: 2 µM
[15] = human gut metagenome, 24 h, 2 µM
[16] = human gut metagenome, 24 h, 2 µM; remark: listed apart in the source
[17] = human gut metagenome, 24 h, 2 µM; remark: listed apart in the source
[18] = human gut metagenome, 24 h, 2 µM; remark: listed apart in the source
[19] = human gut metagenome, 24 h, 2 µM; remark: listed apart in the source
[20] = human gut metagenome, 24 h, 2 µM; remark: listed apart in the source
Further: call rule not given here.

SMILES: CC(=O)CCCCn1c(=O)c2c(ncn2C)n(C)c1=O [PENTOXIFYLLINE]
- Bacterial Biotransformation [1]: Compound NOT metabolized
- Bacterial Biotransformation [2]: Compound NOT metabolized
- Bacterial Biotransformation [3]: Compound NOT metabolized
- Bacterial Biotransformation [4]: Compound NOT metabolized
- Bacterial Biotransformation [5]: Compound NOT metabolized
- Bacterial Biotransformation [6]: Compound NOT metabolized
- Bacterial Biotransformation [7]: Compound NOT metabolized
- Bacterial Biotransformation [8]: Compound NOT metabolized
- Bacterial Biotransformation [9]: Compound metabolized
- Bacterial Biotransformation [10]: Compound NOT metabolized
- Bacterial Biotransformation [11]: Compound NOT metabolized
- Bacterial Biotransformation [12]: Compound NOT metabolized
- Bacterial Biotransformation [13]: Compound NOT metabolized
- Bacterial Biotransformation [14]: Compound NOT metabolized
- Bacterial Biotransformation [15]: Compound NOT metabolized
- Bacterial Biotransformation [16]: Compound NOT metabolized
- Bacterial Biotransformation [17]: Compound NOT metabolized
- Bacterial Biotransformation [18]: Compound NOT metabolized
- Bacterial Biotransformation [19]: Compound NOT metabolized
- Bacterial Biotransformation [20]: Compound metabolized

SMILES: CCCN1C[C@H](CSC)C[C@@H]2c3cccc4[nH]cc(c34)C[C@H]21.CS(=O)(=O)O [PERGOLIDE MESYLATE]
- Bacterial Biotransformation [1]: Compound NOT metabolized
- Bacterial Biotransformation [2]: Compound NOT metabolized
- Bacterial Biotransformation [3]: Compound NOT metabolized
- Bacterial Biotransformation [4]: Compound NOT metabolized
- Bacterial Biotransformation [5]: Compound NOT metabolized
- Bacterial Biotransformation [6]: Compound NOT metabolized
- Bacterial Biotransformation [7]: Compound NOT metabolized
- Bacterial Biotransformation [8]: Compound NOT metabolized
- Bacterial Biotransformation [9]: Compound NOT metabolized
- Bacterial Biotransformation [10]: Compound NOT metabolized
- Bacterial Biotransformation [11]: Compound NOT metabolized
- Bacterial Biotransformation [12]: Compound NOT metabolized
- Bacterial Biotransformation [13]: Compound NOT metabolized
- Bacterial Biotransformation [14]: Compound NOT metabolized
- Bacterial Biotransformation [15]: Compound NOT metabolized
- Bacterial Biotransformation [16]: Compound NOT metabolized
- Bacterial Biotransformation [17]: Compound NOT metabolized
- Bacterial Biotransformation [18]: Compound NOT metabolized
- Bacterial Biotransformation [19]: Compound NOT metabolized
- Bacterial Biotransformation [20]: Compound NOT metabolized

SMILES: CC(C)(C)N.CCC[C@H](N[C@@H](C)C(=O)N1[C@H](C(=O)O)C[C@@H]2CCCC[C@@H]21)C(=O)OCC [PERINDOPRIL ERBUMINE]
- Bacterial Biotransformation [1]: Compound NOT metabolized
- Bacterial Biotransformation [2]: Compound NOT metabolized
- Bacterial Biotransformation [3]: Compound metabolized
- Bacterial Biotransformation [4]: Compound metabolized
- Bacterial Biotransformation [5]: Compound NOT metabolized
- Bacterial Biotransformation [6]: Compound metabolized
- Bacterial Biotransformation [7]: Compound NOT metabolized
- Bacterial Biotransformation [8]: Compound metabolized
- Bacterial Biotransformation [9]: Compound metabolized
- Bacterial Biotransformation [10]: Compound NOT metabolized
- Bacterial Biotransformation [11]: Compound metabolized
- Bacterial Biotransformation [12]: Compound NOT metabolized
- Bacterial Biotransformation [13]: Compound NOT metabolized
- Bacterial Biotransformation [14]: Compound metabolized
- Bacterial Biotransformation [15]: Compound NOT metabolized
- Bacterial Biotransformation [16]: Compound metabolized
- Bacterial Biotransformation [17]: Compound metabolized
- Bacterial Biotransformation [18]: Compound metabolized
- Bacterial Biotransformation [19]: Compound NOT metabolized
- Bacterial Biotransformation [20]: Compound metabolized

Reference: ChEMBL document CHEMBL5724914, “Linking interpersonal differences in gut microbiota composition and drug biotransformation activity” (2024)
